According to paper PMC9578396, “Intrinsic Antibacterial Activity of Xeruborbactam In Vitro: Assessing Spectrum and Mode of Action” (Antimicrobial Agents and Chemotherapy, 2022):
Read-outs that look alike come from different tables or passages of the source.

Tests used:
[1] = tested on: Acinetobacter baumannii; assay: Broth microdilution MIC (CLSI), Acinetobacter baumannii; format: cell-based; conditions: Acinetobacter baumannii
From the text: (§1) (i) Panels of engineered bacterial strains containing various combinations of porin and efflux mutations were used. The construction of all the strains used in the study is described in detail in references, [44], and [45]. (ii) KPC-producing clinical isolates and their derivatives that lost KPC plasmids were used also. These strains and their origins are described in the Table S2. (iii) Finally, KPC-producing clinical isolates enriched in strains with porin mutations were used. The mutations identified include various deletions, insertions, nonsense mutations, and decreased expression. Most of the isolates were obtained from JMI Laboratories or International Health Management Associates (IHMA); they were collected in the course of global surveillance studies.
(§2) Bacterial isolates were subjected to broth microdilution susceptibility testing, performed according to Clinical and Laboratory Standards Institute (CLSI) methods ([46]), using panels prepared in-house. […] Xeruborbactam was synthesized at Qpex Biopharma, San Diego, CA. Avibactam was purchased from eNovation Chemicals LLC, Bridgewater, NJ, USA; zidebactam was from MedKoo Biosciences, Inc., Morrisville, NC, and nacubactam was from Advanced ChemBlocks, Hayward, CA. Durlobactam was synthesized at Acme Bioscience, Palo Alto, CA, USA.

[2] = tested on: A. baumannii strain ATCC 17978; assay: Fluorescence microscopy, cellular morphology; format: cell-based, Acinetobacter baumannii; conditions: xeruborbactam, meropenem 1× and 2× MIC; aztreonam 2× MIC; amdinocillin 2 μg/mL
Method: Single colonies of K. pneumoniae strain KPM1026a, A. baumannii strain ATCC 17978, and P. aeruginosa strain PAM1154 were picked from LB agar plates, inoculated in cation-adjusted Mueller-Hinton broth (CA-MHB), and incubated overnight at 30°C with rolling. Overnight cultures were diluted into fresh CA-MHB and incubated at 30°C, with rolling, until they reached an OD600 of ≈0.12 to 0.15 (equivalent to ~2 × 10^8 CFU/mL). Samples were then treated with compounds and incubated at 30°C, with rolling. After 1 or 2 h of treatment, cells were collected and stained with a dye mix containing FM4-64 (1 μg/mL), DAPI (4′,6-diamidino-2-phenylindole) (2 μg/mL), and SYTOX green (0.5 μM) (Molecular Probes, Invitrogen, or Thermo Fisher Scientific). Cells were transferred onto an agarose pad containing 1.2% agarose and 20% LB medium for microscopy. Microscopy was performed as previously described ([34]).

[3] = tested on: Escherichia coli; assay: Broth microdilution MIC (CLSI), Escherichia coli; format: cell-based
Outline: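 MICs by CLSI broth microdilution in in-house panels. Strains tested were engineered strains carrying porin and efflux mutation combinations, KPC-producing clinical isolates and derivatives cured of KPC plasmids, and KPC-producing clinical isolates enriched for porin mutations.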

[4] = tested on: Pseudomonas aeruginosa; assay: Broth microdilution MIC (CLSI), Pseudomonas aeruginosa; format: cell-based
From the text: as §1, §2

C[C@H]1[C@H](NC(=O)/C(=N\OC(C)(C)C(=O)O)c2csc(N)n2)C(=O)N1S(=O)(=O)O [Aztreonam]
MIC ([1]; AB1007 (no beta-lactamase), xeruborbactam 0 µg/ml, read-out: MIC): 32 µg/mL
MIC ([1]; AB1007, xeruborbactam 2 µg/ml, read-out: MIC): 32 µg/mL
MIC ([1]; AB1007, xeruborbactam 4 µg/ml, read-out: MIC): 16 µg/mL
MIC ([1]; AB1007, xeruborbactam 8 µg/ml, read-out: MIC): 4 µg/mL
MIC ([1]; ATCC17978, strain ATCC 17978 (Fig. 6), read-out: MIC): 32 µg/mL
MIC ([1]; strain AB1007, wild type, read-out: MIC): 32 µg/mL
MIC ([1]; strain ACM1013, ΔadeIJK): 1 µg/mL
MIC ([1]; strain ACM1014, ΔadeABC): 16 µg/mL
MIC ([1]; strain ACM1015, ΔadeIJK ΔadeABC): 1 µg/mL
MIC ([1]; strain ACM1027, adeN (AdeIJK overexpression)): 64 µg/mL
MIC ([1]; strain ACM1030, adeS (AdeABC overexpression)): 16 µg/mL
cellular morphology [2]: increase in cell length
MIC ([3]; EC1078, PBP2 same as MG1655, PBP3 I332V): 64
MIC ([3]; EC1081, PBP2 same as MG1655, PBP3 Q227H): 64
MIC ([3]; EC1085, PBP2 T331P, PBP3 A233T I332V): 2
MIC ([3]; EC1088, PBP2 A308G, PBP3 same as MG1655): > 64
MIC ([3]; EC1097, PBP2 M574I, PBP3 Q227H): > 64
MIC ([3]; EC1098, PBP2 V217M, PBP3 YRIN ins, I532L): 64
MIC ([3]; EC1103, PBP2 same as MG1655, PBP3 YRIN ins, Q227H, E349K, I532L): 32
MIC ([3]; EC1105, PBP2 A543T, PBP3 YRIN ins, Q227H, E349K, I532L): > 64
MIC ([3]; EC1119, PBP2 same as MG1655, PBP3 YRIN ins, Q227H, E349K, I532L): > 64
MIC ([3]; EC1121, PBP2 V217M, PBP3 YRIN ins, E349K, I532L): > 64
MIC ([3]; Escherichia coli, strain ECM5497, wild type, read-out: MIC): 0.03 µg/mL
MIC ([3]; Escherichia coli, strain ECM6001, ΔacrB): 0.03 µg/mL
MIC ([4]; PAM1154 (oprM::Hg), xeruborbactam 0 µg/ml): 0.5 µg/mL
MIC ([4]; Pseudomonas aeruginosa, strain 1089003, alone, read-out: MIC): 0.5 µg/mL
MIC ([4]; Pseudomonas aeruginosa, strain 1097436, alone, read-out: MIC): 64 µg/mL
MIC ([4]; Pseudomonas aeruginosa, strain 1098916, alone, read-out: MIC): 0.5 µg/mL
MIC ([4]; Pseudomonas aeruginosa, strain 1104168, alone, read-out: MIC): 1 µg/mL
MIC ([4]; Pseudomonas aeruginosa, strain 1104284, alone, read-out: MIC): 0.5 µg/mL
MIC ([4]; Pseudomonas aeruginosa, strain 1106973, alone, read-out: MIC): 2 µg/mL
MIC ([4]; Pseudomonas aeruginosa, strain 1109744, alone, read-out: MIC): 0.5 µg/mL
MIC ([4]; Pseudomonas aeruginosa, strain 1113238, alone, read-out: MIC): 32 µg/mL
MIC ([4]; Pseudomonas aeruginosa, strain 1113634, alone, read-out: MIC): 4 µg/mL
MIC ([4]; Pseudomonas aeruginosa, strain 1116835, alone, read-out: MIC): 0.5 µg/mL
MIC ([4]; Pseudomonas aeruginosa, strain 1116849, alone, read-out: MIC): 2 µg/mL
MIC ([4]; Pseudomonas aeruginosa, strain 1118234, alone, read-out: MIC): 32 µg/mL
MIC ([4]; Pseudomonas aeruginosa, strain 1119418, alone, read-out: MIC): 32 µg/mL
MIC ([4]; Pseudomonas aeruginosa, strain 1125954, alone, read-out: MIC): 1 µg/mL
MIC ([4]; Pseudomonas aeruginosa, strain 1125996, alone, read-out: MIC): > 64 µg/mL
MIC ([4]; Pseudomonas aeruginosa, strain 1126521, alone, read-out: MIC): 0.5 µg/mL
MIC ([4]; Pseudomonas aeruginosa, strain 1126957, alone, read-out: MIC): > 64 µg/mL
MIC ([4]; Pseudomonas aeruginosa, strain 1126982, alone, read-out: MIC): 0.5 µg/mL
MIC ([4]; Pseudomonas aeruginosa, strain 1128636, alone, read-out: MIC): 2 µg/mL
MIC ([4]; Pseudomonas aeruginosa, strain 1128674, alone, read-out: MIC): 4 µg/mL
MIC ([4]; Pseudomonas aeruginosa, strain 1130447, alone, read-out: MIC): > 64 µg/mL
MIC ([4]; Pseudomonas aeruginosa, strain PAM1020, wild type, read-out: MIC): 4 µg/mL
MIC ([4]; Pseudomonas aeruginosa, strain PAM1032, nalB (MexAB-OprM overexpression)): 16 µg/mL
MIC ([4]; Pseudomonas aeruginosa, strain PAM1033, nfxB (MexCD-OprJ overexpression)): 1 µg/mL
MIC ([4]; Pseudomonas aeruginosa, strain PAM1034, nfxC (MexEF-OprN overexpression)): 4 µg/mL
